According to US20210254056A1, “IDENTIFICATION AND TARGETED MODULATION OF GENE SIGNALING NETWORKS” (CAMP4 THERAPEUTICS CORPORATION, priority 2017, published 2021):

Test system: hepatocytes
Test: RNA-seq of hepatocytes treated with Phase III failure compounds
Conditions: hepatocytes
Experimental: RNA-seq was performed to determine the effects of the compounds on hepatocytes.
Significance was determined by the criteria of FPKM≥0.5, a log 2(fold-change)≥1, and a […].

Question: For `CCC(CC)[C@H](NC(C)=O)[C@@H]1[C@H](O)[C@@H](C(=O)O)C[C@H]1NC(=N)N.O.O.O` [peramivir (trihydrate), peramivir], which “RNA-seq results, PTRH2” value (gene PTRH2) is on record?
Answer: 0.15

Question: And the “RNA-seq results: PTRH2” value (gene PTRH2)?
Answer: −0.47

Question: And the “RNA-seq results, PUS1” value (gene PUS1)?
Answer: 0.16

Question: What about the “RNA-seq results: PUS1” value (gene PUS1) of the same compound?
Answer: 0.29

Question: What about the “RNA-seq results, PXMP2” value (gene PXMP2) of the same compound?
Answer: 0.19

Question: What about the “RNA-seq results: PXMP2” value (gene PXMP2) of the same compound?
Answer: −0.29

Question: What about the “RNA-seq results, PXMP4” value (gene PXMP4) of the same compound?
Answer: 0.22

Question: What about the “RNA-seq results: PXMP4” value (gene PXMP4) of the same compound?
Answer: −0.05

Question: And the “RNA-seq results, RAI1” value (gene RAI1)?
Answer: 0.12

Question: And the “RNA-seq results: RAI1” value (gene RAI1)?
Answer: 0.38

Question: And the “RNA-seq results, RANBP2” value (gene RANBP2)?
Answer: −0.29

Question: What about the “RNA-seq results: RANBP2” value (gene RANBP2) of the same compound?
Answer: −0.16

Question: What about the “RNA-seq results, RASA1” value (gene RASA1) of the same compound?
Answer: −0.13

Question: What about the “RNA-seq results: RASA1” value (gene RASA1) of the same compound?
Answer: −0.26

Question: What about the “RNA-seq results, RBCK1” value (gene RBCK1) of the same compound?
Answer: 0.64

Question: And the “RNA-seq results: RBCK1” value (gene RBCK1)?
Answer: 0.26

Question: And the “RNA-seq results, RBM10” value (gene RBM10)?
Answer: 0.13

Question: And the “RNA-seq results: RBM10” value (gene RBM10)?
Answer: 0.11

Question: What about the “RNA-seq results, REN” value (gene REN) of the same compound?
Answer: 0

Question: What about the “RNA-seq results: REN” value (gene REN) of the same compound?
Answer: 0.46

Question: And the “RNA-seq results, RMND1” value (gene RMND1)?
Answer: −0.07

Question: What about the “RNA-seq results: RMND1” value (gene RMND1) of the same compound?
Answer: −0.47

Question: And the “RNA-seq results, RMRP” value (gene RMRP)?
Answer: 0.54

Question: What about the “RNA-seq results: RMRP” value (gene RMRP) of the same compound?
Answer: −1.76

Question: What about the “RNA-seq results, RNASEH2A” value (gene RNASEH2A) of the same compound?
Answer: 0.54

Question: And the “RNA-seq results: RNASEH2A” value (gene RNASEH2A)?
Answer: −0.19

Question: What about the “RNA-seq results, RORC” value (gene RORC) of the same compound?
Answer: 0.4

Question: And the “RNA-seq results: RORC” value (gene RORC)?
Answer: 0.58

Question: And the “RNA-seq results, RPGRIP1L” value (gene RPGRIP1L)?
Answer: −0.2

Question: And the “RNA-seq results: RPGRIP1L” value (gene RPGRIP1L)?
Answer: −0.12

Question: What about the “RNA-seq results, RRM2B” value (gene RRM2B) of the same compound?
Answer: −0.53

Question: And the “RNA-seq results: RRM2B” value (gene RRM2B)?
Answer: −0.34

Question: And the “RNA-seq results, RSAD1” value (gene RSAD1)?
Answer: 0.1

Question: And the “RNA-seq results: RSAD1” value (gene RSAD1)?
Answer: 0.11

Question: What about the “RNA-seq results, SAMHD1” value (gene SAMHD1) of the same compound?
Answer: −0.29

Question: What about the “RNA-seq results: SAMHD1” value (gene SAMHD1) of the same compound?
Answer: −0.43

Question: What about the “RNA-seq results, SC5D” value (gene SC5D) of the same compound?
Answer: 0.05

Question: And the “RNA-seq results: SC5D” value (gene SC5D)?
Answer: −0.56

Question: And the “RNA-seq results, SCARB1” value (gene SCARB1)?
Answer: 0.12

Question: What about the “RNA-seq results: SCARB1” value (gene SCARB1) of the same compound?
Answer: 0.11

Question: And the “RNA-seq results, SCN9A” value (gene SCN9A)?
Answer: −0.56

Question: What about the “RNA-seq results: SCN9A” value (gene SCN9A) of the same compound?
Answer: −0.09

Question: And the “RNA-seq results, SDCCAG8” value (gene SDCCAG8)?
Answer: −0.12

Question: What about the “RNA-seq results: SDCCAG8” value (gene SDCCAG8) of the same compound?
Answer: −0.10

Question: And the “RNA-seq results, SEPN1” value (gene SEPN1)?
Answer: 0.26

Question: And the “RNA-seq results: SEPN1” value (gene SEPN1)?
Answer: −0.02

Question: And the “RNA-seq results, SERAC1” value (gene SERAC1)?
Answer: −0.1

Question: And the “RNA-seq results: SERAC1” value (gene SERAC1)?
Answer: −0.34

Question: What about the “RNA-seq results, SERPINA1” value (gene SERPINA1) of the same compound?
Answer: −0.03

Question: And the “RNA-seq results: SERPINA1” value (gene SERPINA1)?
Answer: −0.16

Question: And the “RNA-seq results, SERPING1” value (gene SERPING1)?
Answer: 0.12

Question: What about the “RNA-seq results: SERPING1” value (gene SERPING1) of the same compound?
Answer: −0.27

Question: And the “RNA-seq results, SERPINI1” value (gene SERPINI1)?
Answer: −0.33

Question: And the “RNA-seq results: SERPINI1” value (gene SERPINI1)?
Answer: −0.37

Question: What about the “RNA-seq results, SETBP1” value (gene SETBP1) of the same compound?
Answer: −0.1

Question: And the “RNA-seq results: SETBP1” value (gene SETBP1)?
Answer: 0.05

Question: And the “RNA-seq results, SFXN4” value (gene SFXN4)?
Answer: 0.09

Question: And the “RNA-seq results: SFXN4” value (gene SFXN4)?
Answer: −0.17

Question: And the “RNA-seq results, SLC2A1” value (gene SLC2A1)?
Answer: 0.56

Question: And the “RNA-seq results: SLC2A1” value (gene SLC2A1)?
Answer: 0.08

Question: What about the “RNA-seq results, SLC2A2” value (gene SLC2A2) of the same compound?
Answer: −0.62

Question: What about the “RNA-seq results: SLC2A2” value (gene SLC2A2) of the same compound?
Answer: −0.24

Question: And the “RNA-seq results, SLC2A9” value (gene SLC2A9)?
Answer: 0.24

Question: What about the “RNA-seq results: SLC2A9” value (gene SLC2A9) of the same compound?
Answer: 0.16

Question: What about the “RNA-seq results, SLC4A4” value (gene SLC4A4) of the same compound?
Answer: −0.08

Question: And the “RNA-seq results: SLC4A4” value (gene SLC4A4)?
Answer: −0.30

Question: What about the “RNA-seq results, SLC6A6” value (gene SLC6A6) of the same compound?
Answer: 0.1

Question: And the “RNA-seq results: SLC6A6” value (gene SLC6A6)?
Answer: −0.29

Question: What about the “RNA-seq results, SLC6A8” value (gene SLC6A8) of the same compound?
Answer: 0.26

Question: What about the “RNA-seq results: SLC6A8” value (gene SLC6A8) of the same compound?
Answer: 0.27

Question: What about the “RNA-seq results, SLC6A20” value (gene SLC6A20) of the same compound?
Answer: 0.4

Question: What about the “RNA-seq results: SLC6A20” value (gene SLC6A20) of the same compound?
Answer: −0.44

Question: And the “RNA-seq results, SLC7A7” value (gene SLC7A7)?
Answer: −0.01

Question: And the “RNA-seq results: SLC7A7” value (gene SLC7A7)?
Answer: 0.03

Question: And the “RNA-seq results, SLC10A1” value (gene SLC10A1)?
Answer: −0.05

Question: And the “RNA-seq results: SLC10A1” value (gene SLC10A1)?
Answer: −0.14

Question: What about the “RNA-seq results, SLC10A3” value (gene SLC10A3) of the same compound?
Answer: 0.11

Question: And the “RNA-seq results: SLC10A3” value (gene SLC10A3)?
Answer: 0.57

Question: What about the “RNA-seq results, SLC10A5” value (gene SLC10A5) of the same compound?
Answer: −0.66

Question: And the “RNA-seq results: SLC10A5” value (gene SLC10A5)?
Answer: 0.46

Question: What about the “RNA-seq results, SLC10A7” value (gene SLC10A7) of the same compound?
Answer: −0.13

Question: And the “RNA-seq results: SLC10A7” value (gene SLC10A7)?
Answer: −0.54

Question: And the “RNA-seq results, SLC11A2” value (gene SLC11A2)?
Answer: 0.08

Question: And the “RNA-seq results: SLC11A2” value (gene SLC11A2)?
Answer: 0.04

Question: What about the “RNA-seq results, SLC19A1” value (gene SLC19A1) of the same compound?
Answer: 0.2

Question: And the “RNA-seq results: SLC19A1” value (gene SLC19A1)?
Answer: 0.05

Question: What about the “RNA-seq results, SLC19A2” value (gene SLC19A2) of the same compound?
Answer: 0.09

Question: And the “RNA-seq results: SLC19A2” value (gene SLC19A2)?
Answer: −0.17

Question: And the “RNA-seq results, SLC19A3” value (gene SLC19A3)?
Answer: 0

Question: What about the “RNA-seq results: SLC19A3” value (gene SLC19A3) of the same compound?
Answer: −0.16

Question: And the “RNA-seq results, SLC22A1” value (gene SLC22A1)?
Answer: 0.13

Question: And the “RNA-seq results: SLC22A1” value (gene SLC22A1)?
Answer: −0.12

Question: What about the “RNA-seq results, SLC22A5” value (gene SLC22A5) of the same compound?
Answer: 0.12

Question: What about the “RNA-seq results: SLC22A5” value (gene SLC22A5) of the same compound?
Answer: −0.16

Question: And the “RNA-seq results, SLC25A1” value (gene SLC25A1)?
Answer: 0.16

Question: What about the “RNA-seq results: SLC25A1” value (gene SLC25A1) of the same compound?
Answer: 0.33

Question: And the “RNA-seq results, SLC25A10” value (gene SLC25A10)?
Answer: 0.09

Question: And the “RNA-seq results: SLC25A10” value (gene SLC25A10)?
Answer: 0.12

Question: What about the “RNA-seq results, SLC25A12” value (gene SLC25A12) of the same compound?
Answer: 0.29

Question: What about the “RNA-seq results: SLC25A12” value (gene SLC25A12) of the same compound?
Answer: 0.27

Question: And the “RNA-seq results, SLC25A13” value (gene SLC25A13)?
Answer: 0.11

Question: What about the “RNA-seq results: SLC25A13” value (gene SLC25A13) of the same compound?
Answer: −0.17

Question: What about the “RNA-seq results, SLC25A15” value (gene SLC25A15) of the same compound?
Answer: −0.01

Question: What about the “RNA-seq results: SLC25A15” value (gene SLC25A15) of the same compound?
Answer: 0.03

Question: What about the “RNA-seq results, SLC25A19” value (gene SLC25A19) of the same compound?
Answer: −0.01

Question: And the “RNA-seq results: SLC25A19” value (gene SLC25A19)?
Answer: −0.19

Question: And the “RNA-seq results, SLC25A20” value (gene SLC25A20)?
Answer: −0.1

Question: What about the “RNA-seq results: SLC25A20” value (gene SLC25A20) of the same compound?
Answer: −0.32

Question: And the “RNA-seq results, SLC25A29” value (gene SLC25A29)?
Answer: 0.22

Question: And the “RNA-seq results: SLC25A29” value (gene SLC25A29)?
Answer: 0.65

Question: What about the “RNA-seq results, SLC25A32” value (gene SLC25A32) of the same compound?
Answer: −0.09

Question: And the “RNA-seq results: SLC25A32” value (gene SLC25A32)?
Answer: −0.32

Question: What about the “RNA-seq results, SLC27A2” value (gene SLC27A2) of the same compound?
Answer: −0.21

Question: What about the “RNA-seq results: SLC27A2” value (gene SLC27A2) of the same compound?
Answer: −0.36

Question: And the “RNA-seq results, SLC27A5” value (gene SLC27A5)?
Answer: 0.25

Question: And the “RNA-seq results: SLC27A5” value (gene SLC27A5)?
Answer: 0.13

Question: And the “RNA-seq results, SLC29A3” value (gene SLC29A3)?
Answer: 0.07

Question: And the “RNA-seq results: SLC29A3” value (gene SLC29A3)?
Answer: −0.02

Question: What about the “RNA-seq results, SLC33A1” value (gene SLC33A1) of the same compound?
Answer: 0.02
